Structures can show the parent of a compound that is named as a salt.
Tests used:
[1] = system: Target C mRNA; assay: Splicing RT-qPCR panel, Target C canonical junction (CJ) mRNA; type: cell-based, human; conditions: Homo sapiens, read-out: Target C CJ (decrease in CJ mRNA levels, IC50)
Summary of the method: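 A673 cells (DMEM, 10% FBS) or K562 cells (IMDM, 10% FBS) treated 24 h at 37 °C with an 11-point 3-fold dilution, top 10 uM, DMSO ≤0.25%. Canonical-junction mRNA quantified in lysates by RT-qPCR, normalised to GAPDH, GUSB or PPIA and to DMSO (2^−ΔΔCt), then converted to % response.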

[2] = system: HiBiT-tagged HTT protein; assay: HiBiT protein abundance assay, HTT (K562 HiBiT knock-in); type: cell-based, human; conditions: HiBiT knock-in cells, 24 hours
Summary of the method: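 Endogenously HiBiT-tagged K562 knock-in lines treated 24 h at 37 °C with 10-point 3-fold dilutions (top 10 μM final, DMSO ≤0.25%) in IMDM+1% FBS. Lytic Nano-Glo luminescence normalized to DMSO and unmodified K562 controls; four-parameter fit gives 50%-abundance concentration (IC50).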

SMILES	IC50 [1] [nM]	IC50 [2] [nM]
CN[C@H]1CCN(c2cnc3nc(-c4cc5cn(C)nc5c(C)c4O)nc(OC)c3c2)C1 [Compound 212, 5-{4-methoxy-6-[(3S)-3-(methylamino)pyrrolidin-1-yl]pyrido[2,3-d]pyrimidin-2-yl}-2,7-dimethylindazol-6-ol]	1000 to 10000	< 100
CNC1CCN(c2cnc3nc(-c4cc5cn(C)nc5cc4O)cc(Cl)c3c2)C1 (stereo not shown) [Compound 213, 5-{4-chloro-6-[3-(methylamino)370pyrrolidine-1-yl]-1,8-naphthyridin-2-yl}-2-methylindazol-6-ol]	1000 to 10000	100 to 1000
Cc1c(O)c(-c2ncc3cc(N4C[C@@H](C)N[C@@H](C)C4)cnc3n2)cc2cn(C)nc12 [Compound 214]	1000 to 10000	100 to 1000
C[C@@H]1CN(c2cnc3nc(-c4cc(F)c5nn(C)cc5c4)cc(Cl)c3c2)C[C@H](C)N1 [Compound 215]	1000 to 10000	1000 to 10000
Cn1cc2cc(-c3cc(Cl)c4cc(N5CCN6CCCC6C5)cnc4n3)cc(F)c2n1 (stereo not shown) [Compound 216, 4-chloro-2-(7-fluoro-2-methylindazol-5-yl)-6-{hexahydro-1H-pyrrolo[1,2-a]pyrazin-2-yl}-1,8-naphthyridine trifluoroacetic acid]	> 10000	1000 to 10000
Cc1c(O)c(-c2cc(-c3ccccn3)c3cc(N4C[C@@H](C)N[C@@H](C)C4)cnc3n2)cc2cn(C)nc12 [Compound 217, 5-{6-[(3R,5S)-3,5-dimethylpiperazin-1-yl]-4-(pyridin-2-yl)-1,8-naphthyridin-2-yl}-2,7-dimethylindazol-6-ol]	> 10000	1000 to 10000
COc1nc(-c2cc3cn(C)nc3c(F)c2O)nc2ncc(N3C[C@@H](C)N[C@@H](C)C3)cc12 [Compound 218]	100 to 1000	< 100
COc1nc(-c2cc3cn(C)nc3c(F)c2O)nc2ncc(N3CCC(N(C)C)CC3)cc12 [Compound 219, 5-{6-[4-(dimethylamino)piperidin-1-yl]-4-methoxypyrido[2,3-d]pyrimidin-2-yl}-7-fluoro-2-methylindazol-6-ol]	100 to 1000	< 100
CN(C)[C@@H]1CCN(c2cnc3nc(-c4cc5cn(C)nc5c(F)c4O)cc(Cl)c3c2)C1 [Compound 220]	100 to 1000	< 100
CN(C)[C@H]1CCN(c2cnc3nc(-c4cc5cn(C)nc5c(F)c4O)cc(Cl)c3c2)C1 [Compound 221]	100 to 1000	< 100
C[C@H]1CN(c2cnc3nc(-c4cc5cn(C)nc5cc4O)cc(Cl)c3c2)C[C@H](C)N1 [Compound 242]	1000 to 10000	100 to 1000
C[C@@H]1CN(c2cnc3nc(-c4cc5cn(C)nc5cc4O)cc(Cl)c3c2)C[C@@H](C)N1 [Compound 243, 5-{4-chloro-6-[(3R,5R)-3,5-dimethylpiperazin-1-yl]-1,8-naphthyridin-2-yl}-2-methylindazol-6-ol hydrochloride]	1000 to 10000	100 to 1000
C[C@H]1CN(c2cnc3nc(-c4cc(F)c5nn(C)cc5c4)cc(Cl)c3c2)C[C@H](C)N1 [Compound 250]	100 to 1000	100 to 1000
C[C@@H]1CN(c2cnc3nc(-c4cc(F)c5nn(C)cc5c4)cc(Cl)c3c2)C[C@@H](C)N1 [Compound 251]	> 10000	1000 to 10000
Cc1c(O)c(-c2cc(-c3nnc[nH]3)c3cc(N4C[C@@H](C)N[C@@H](C)C4)cnc3n2)cc2cn(C)nc12 [Compound 261, 5-{6-[(3R,5S)-3,5-dimethylpiperazin-1-yl]-4-(4H-1,2,4-triazol-3-yl)-1,8-naphthyridin-2-yl}-2,7-dimethylindazol-6-ol]	100 to 1000	> 10000
C[C@@H]1CN(c2cnc3nc(-c4cc5cn(C)nc5c(F)c4O)cc(C#N)c3c2)C[C@H](C)N1 [Compound 266, 6-[(3R,5S)-3,5-dimethylpiperazin-1-yl]-2-(7-fluoro-6-hydroxy-2-methylindazol-5-yl)-1,8-naphthyridine-4-carbonitrile hydrochloride]	1000 to 10000	100 to 1000
CN[C@@H]1CCN(c2cnc3nc(-c4cc5cn(C)nc5c(F)c4O)cc(Cl)c3c2)C1 [Compound 271]	< 100	< 100

From patent US20250326748A1, “COMPOUNDS AND METHODS FOR MODULATING SPLICING” (REMIX THERAPEUTICS INC., priority 2022, published 2025)
